Here are results for 4 compounds from patent publication US20070015733A1, “Aryl Phosphate Derivatives of d4T having Activity Against Resistant HIV Strains” (Parker Hughes Institute, priority 1998, published 2007).

One series concerns HIV-1 HTLVIIIB
Put plainly: microbe, parasite or virus in culture. An outline of the steps: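 PHA- and IL-2-stimulated human PBMC from HIV-negative donors were infected with HIV-1 (MOI 0.001–0.1, 1 h, 37 °C) and cultured with compound (0.0001–100 μM). Supernatant p24 was measured by EIA on day 6 or 7; percent inhibition was calculated against untreated infected controls and IC50 was derived from it.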

A further series relates to HIV-1 (strain: HTLVIIIB). Put plainly: microbe, parasite or virus in culture. It counts as cell-based. As to the method: Percent inhibition of viral replication was calculated by comparing the p24 and RT activity values from the test substance-treated infected cells with those from untreated infected cells. In parallel, the cytotoxicity of the compounds was examined using a microculture tetrazolium assay (MTA) of cell proliferation, as described.in the Zarling, Enrice, and Uckun articles Supra).
Cellular Assays of Anti-HIV Activity and Cytotoxicity. […] Percent viral inhibition was calculated by comparing the RT activity values from the test substance-treated infected cells with RT values from untreated infected cells (i.e., virus controls).

[1] abbreviates: Human immunodeficiency virus 1, PBMC.
The mark [2] stands for this setting: Human immunodeficiency virus 1, PBMC, in Homo sapiens, read-out: IC50, compound 1c compared to zidovudine.
Where [3] appears, read: Human immunodeficiency virus 1, PBMC, in Homo sapiens, read-out: IC90, compound 1c compared to zidovudine.
Setting [4] is: Human immunodeficiency virus 1, read-out: IC50 HTLVIIIB
[5] abbreviates: Human immunodeficiency virus 1, PBMC, read-out: IC50 value for inhibition of RT activity, peripheral blood mononuclear cells.
Where [6] appears, read: Human immunodeficiency virus 1, read-out: IC50 [RT], PBMNC, unit not printed in Table 2 (0.040 = 40 nM).
Where [7] appears, read: Human immunodeficiency virus 1, read-out: IC50 [p24], PBMNC, unit not printed in Table 2 (0.018 = 18 nM).
The mark [8] stands for this setting: Human immunodeficiency virus 1, read-out: PBMNC IC50 [RT], PBMNC, unit not given in Table 5 (0.04 = 40 nM).

Like-named read-outs stand apart in the source and are kept apart here.

For the compound `Cc1cn([C@H]2C[C@H](N=[N+]=[N-])[C@@H](CO)O2)c(=O)[nH]c1=O` [AZT, 3′-azido-3′-deoxythymidine], in the series with HIV-1 HTLVIIIB, the “SI(CC50/IC50)” value is 31,867. In addition, the IC50 (as a rule, the concentration that gives 50% inhibition) in the series on HIV-1 HTLVIIIB (setting [1]) is 3 ± 1 nM; with HIV-1 HTLVIIIB (setting [2]), 3 ± 1 nM; in the series on HIV-1 HTLVIIIB (setting [4]) it was 4 ± 1 nM; with HIV-1 (strain: HTLVIIIB) (Human immunodeficiency virus 1, PBMC, peripheral blood mononuclear cells, read-out: IC50 value for inhibition of RT activity), 3 nM; in the series on HIV-1 (strain: HTLVIIIB) (Human immunodeficiency virus 1, PBMNC, unit not given in Table 5 (0.04 = 40 nM), read-out: PBMNC IC50 [RT]), 3 nM. Besides, the IC90 with HIV-1 HTLVIIIB (setting [1]) and with HIV-1 HTLVIIIB (setting [3]) was 93 ± 34 nM in each case.
Turning to `COC(=O)C(C)NP(=O)(OC[C@@H]1C=C[C@H](n2cc(C)c(=O)[nH]c2=O)O1)Oc1ccc(Br)cc1` (stereo partly drawn) [Compound 1c, d4T-5′-[p-bromo-phenylmethoxyalaninyl phosphate]], the IC50 in the series on HIV-1 HTLVIIIB (setting [1]) stood at 1 nM; in the series on HIV-1 HTLVIIIB (setting [2]) it was 1 nM; with HIV-1 HTLVIIIB (setting [4]), 1 nM; with HIV-1 (strain: HTLVIIIB) (setting [5]) it was 42 nM; with HIV-1 (strain: HTLVIIIB) (setting [6]) it was 42 nM; in the series with HIV-1 (strain: HTLVIIIB) (setting [7]), 22 nM. For the same compound, the IC50 with HIV-1 (strain: HTLVIIIB) (setting [8]) amounted to 40 nM. Further, the figures for the IC90 with HIV-1 HTLVIIIB (setting [1]) and with HIV-1 HTLVIIIB (setting [3]) were 52 ± 24 nM and 45 ± 28 nM, respectively.
Take `Cc1cn([C@H]2C=C[C@@H](CO)O2)c(=O)[nH]c1=O` [d4T, 2′,3′-didehydro-2′,3′-dideoxythymidine]: in the series on HIV-1 HTLVIIIB, the “SI(CC50/IC50)” value is listed as 196. Further, the 50% inhibitory concentration (IC50) was 23 ± 8 nM in the series with HIV-1 HTLVIIIB (setting [1]); 18 nM in the series on HIV-1 HTLVIIIB (setting [4]); 40 nM in the series with HIV-1 (strain: HTLVIIIB) (setting [5]); 18 nM with HIV-1 (strain: HTLVIIIB) (Human immunodeficiency virus 1, PBMC, read-out: IC50 value for inhibition of p24 production, peripheral blood mononuclear cells); 40 nM in the series on HIV-1 (strain: HTLVIIIB) (setting [6]); 18 nM in the series on HIV-1 (strain: HTLVIIIB) (setting [7]). In addition, the half-maximal inhibitory concentration (IC50) is 4 nM with HIV-1 (strain: HTLVIIIB) (Human immunodeficiency virus 1, read-out: PBMNC IC50 [RT], PBMNC, Table 4) and 40 nM in the series on HIV-1 (strain: HTLVIIIB) (setting [8]). Besides, the concentration for an effect of 90% (IC90) (commonly the concentration at which the effect reaches the 90% level) in the series with HIV-1 HTLVIIIB (setting [1]) was 1470 ± 614 nM.
For `Cc1ccnc2c1NC(=O)c1cccnc1N2C1CC1` [nevirapine], the “SI(CC50/IC50)” value in the series on HIV-1 HTLVIIIB (HTLVIIIB, PBMC) is recorded as 213. Moreover, in the series on HIV-1 HTLVIIIB (setting [1]), the IC50 was determined as 24 ± 7 nM and the IC90 was 1100 ± 478 nM.
